Test results taken from PMC12028158, “Synthesis and In Vitro Evaluation of the Anticancer Effect of Novel Phosphonium Vindoline Derivatives” (International Journal of Molecular Sciences, 2025).

Tests used:
Format in all cases: cell-based
[1] = test system: NCI-H226; assay: NCI60 five-dose screen; conditions: Homo sapiens; NCI-H226, Non-small Cell Lung Cancer, five-dose; read-out: GI50
[2] = test system: HCT-116; assay: NCI60 five-dose screen; conditions: Homo sapiens; HCT-116, Colon Cancer, five-dose; read-out: GI50
[3] = test system: Colon Cancer panel; assay: NCI60 five-dose screen, panel mean; conditions: Homo sapiens; mean over Colon Cancer panel; read-out: Mean GI50
[4] = test system: SN12C; assay: NCI60 five-dose screen; conditions: Homo sapiens, Renal Cancer, five-dose, read-out: GI50
[5] = test system: UACC-62; assay: NCI60 five-dose screen; conditions: Homo sapiens; UACC-62, Melanoma, five-dose; read-out: GI50
[6] = test system: UACC-257; assay: NCI60 five-dose screen; conditions: Homo sapiens, UACC-257, UACC-257, Melanoma, five-dose; read-out: GI50
[7] = test system: SK-MEL-5; assay: NCI60 five-dose screen; conditions: Homo sapiens; SK-MEL-5, Melanoma, five-dose; read-out: GI50
[8] = test system: SW-620; assay: NCI60 one-dose screen; conditions: Homo sapiens; SW-620, 10 μM, one-dose; read-out: Growth percent
[9] = test system: SNB-19; assay: NCI60 five-dose screen; conditions: Homo sapiens, SNB-19, SNB-19, CNS Cancer, five-dose; read-out: GI50
[10] = test system: A498; assay: NCI60 five-dose screen; conditions: Homo sapiens; A498, Renal Cancer, five-dose; read-out: GI50
[11] = test system: Ovarian Cancer panel; assay: NCI60 five-dose screen, panel mean; conditions: Homo sapiens; mean over Ovarian Cancer panel; read-out: Mean GI50
[12] = test system: MCF7; assay: NCI60 five-dose screen; conditions: Homo sapiens, MCF7, MCF7, Breast Cancer, five-dose; read-out: GI50
[13] = test system: M14; assay: NCI60 five-dose screen; conditions: Homo sapiens; M14, Melanoma, five-dose; read-out: GI50
[14] = test system: KM12; assay: NCI60 one-dose screen; conditions: Homo sapiens; KM12, 10 μM, one-dose; read-out: Growth percent
[15] = test system: HCT-15; assay: NCI60 one-dose screen; conditions: Homo sapiens; HCT-15, 10 μM, one-dose; read-out: Growth percent
[16] = test system: Non-small Cell Lung Cancer panel; assay: NCI60 five-dose screen, panel mean; conditions: Homo sapiens; mean over Non-small Cell Lung Cancer panel; read-out: Mean GI50
[17] = test system: NCI-H23; assay: NCI60 one-dose screen; conditions: Homo sapiens; NCI-H23, 10 μM, one-dose; read-out: Growth percent
[18] = test system: 786-0; assay: NCI60 five-dose screen; conditions: Homo sapiens; 786-0, Renal Cancer, five-dose; read-out: GI50
[19] = test system: SF-268; assay: NCI60 one-dose screen; conditions: Homo sapiens; SF-268, 10 μM, one-dose; read-out: Growth percent
[20] = test system: NCI-H226; assay: NCI60 one-dose screen; conditions: Homo sapiens; NCI-H226, 10 μM, one-dose; read-out: Growth percent
[21] = test system: M14; assay: NCI60 one-dose screen; conditions: Homo sapiens; M14, 10 μM, one-dose; read-out: Growth percent
[22] = test system: OVCAR-8; assay: NCI60 five-dose screen; conditions: Homo sapiens; OVCAR-8, Ovarian Cancer, five-dose; read-out: GI50
[23] = test system: PC-3; assay: NCI60 one-dose screen; conditions: Homo sapiens; PC-3, 10 μM, one-dose; read-out: Growth percent
[24] = test system: SK-OV-3; assay: NCI60 five-dose screen; conditions: Homo sapiens; SK-OV-3, Ovarian Cancer, five-dose; read-out: GI50
[25] = test system: HT29; assay: NCI60 one-dose screen; conditions: Homo sapiens, HT-29; HT29, 10 μM, one-dose; read-out: Growth percent
[26] = test system: HCT-15; assay: NCI60 five-dose screen; conditions: Homo sapiens; HCT-15, Colon Cancer, five-dose; read-out: GI50
[27] = test system: OVCAR-4; assay: NCI60 five-dose screen; conditions: Homo sapiens; OVCAR-4, Ovarian Cancer, five-dose; read-out: GI50
[28] = test system: MOLT-4; assay: NCI60 five-dose screen; conditions: Homo sapiens; MOLT-4, Leukemia, five-dose; read-out: GI50
[29] = test system: OVCAR-8; assay: NCI60 one-dose screen; conditions: Homo sapiens; OVCAR-8, 10 μM, one-dose; read-out: Growth percent
[30] = test system: TK-10; assay: NCI60 one-dose screen; conditions: Homo sapiens; TK-10, 10 μM, one-dose; read-out: Growth percent
[31] = test system: SF-295; assay: NCI60 five-dose screen; conditions: Homo sapiens; SF-295, CNS Cancer, five-dose; read-out: GI50
[32] = test system: MOLT-4; assay: NCI60 one-dose screen; conditions: Homo sapiens; MOLT-4, 10 μM, one-dose; read-out: Growth percent
[33] = test system: CNS Cancer panel; assay: NCI60 five-dose screen, panel mean; conditions: Homo sapiens; mean over CNS Cancer panel; read-out: Mean GI50
[34] = test system: BT-549; assay: NCI60 five-dose screen; conditions: Homo sapiens; BT-549, Breast Cancer, five-dose; read-out: GI50
[35] = test system: MDA-MB-468; assay: NCI60 one-dose screen; conditions: Homo sapiens; MDA-MB-468, 10 μM, one-dose; read-out: Growth percent
[36] = test system: BT-549; assay: NCI60 one-dose screen; conditions: Homo sapiens; BT-549, 10 μM, one-dose; read-out: Growth percent
[37] = test system: CAKI-1; assay: NCI60 one-dose screen; conditions: Homo sapiens; CAKI-1, 10 μM, one-dose; read-out: Growth percent
[38] = test system: HT29; assay: NCI60 five-dose screen; conditions: Homo sapiens, HT-29; HT29, Colon Cancer, five-dose; read-out: GI50
[39] = test system: A549/ATCC; assay: NCI60 five-dose screen; conditions: Homo sapiens; A549/ATCC, Non-small Cell Lung Cancer, five-dose; read-out: GI50
[40] = test system: SF-295; assay: NCI60 one-dose screen; conditions: Homo sapiens; SF-295, 10 μM, one-dose; read-out: Growth percent
[41] = test system: MDA-MB-435; assay: NCI60 five-dose screen; conditions: Homo sapiens; MDA-MB-435, Melanoma, five-dose; read-out: GI50
[42] = test system: Renal Cancer panel; assay: NCI60 five-dose screen, panel mean; conditions: Homo sapiens; mean over Renal Cancer panel; read-out: Mean GI50
[43] = test system: COLO 205; assay: NCI60 one-dose screen; conditions: Homo sapiens; COLO 205, 10 μM, one-dose; read-out: Growth percent
[44] = test system: HCC-2998; assay: NCI60 one-dose screen; conditions: Homo sapiens; HCC-2998, 10 μM, one-dose; read-out: Growth percent
[45] = test system: SK-MEL-28; assay: NCI60 five-dose screen; conditions: Homo sapiens; SK-MEL-28, Melanoma, five-dose; read-out: GI50
[46] = test system: OVCAR-3; assay: NCI60 five-dose screen; conditions: Homo sapiens; OVCAR-3, Ovarian Cancer, five-dose; read-out: GI50
[47] = test system: RXF 393; assay: NCI60 one-dose screen; conditions: Homo sapiens; RXF 393, 10 μM, one-dose; read-out: Growth percent

SMILES: CC[C@]12C=CCN3CC[C@@]4(c5ccc(OC)cc5N(C)[C@H]4[C@@](O)(C(=O)OC)[C@@H]1OC(=O)CCC[P+](c1ccccc1)(c1ccccc1)c1ccccc1)[C@@H]32 [compound 3, reference compound]
- GI50 [1]: 2040 nM
- GI50 [2]: 965 nM
- GI50 [3]: 1690 nM
- GI50 [4]: 590 nM
- GI50 [5]: 222 nM
- GI50 [6]: 240 nM
- GI50 [7]: 766 nM
- activity at 10 µM [8]: 17.4%
- GI50 [9]: 334 nM
- GI50 [10]: 1710 nM
- GI50 [11]: 7780 nM
- GI50 [12]: 306 nM
- GI50 [13]: 790 nM
- activity at 10 µM [14]: -27.2%
- activity at 10 µM [15]: 101%
- GI50 [16]: 1110 nM
- activity at 10 µM [17]: -8.66%
- GI50 [18]: 2740 nM
- activity at 10 µM [19]: 19.2%
- activity at 10 µM [20]: 14%
- activity at 10 µM [21]: 17.7%
- GI50 [22]: 1270 nM
- activity at 10 µM [23]: 2.13%
- GI50 [24]: 894 nM
- activity at 10 µM [25]: 2.42%
- GI50 [26]: 8500 nM
- GI50 [27]: 469 nM
- GI50 [28]: 614 nM
- activity at 10 µM [29]: 3.13%
- activity at 10 µM [30]: 22.3%
- GI50 [31]: 1450 nM
- activity at 10 µM [32]: 5.41%
- GI50 [33]: 760 nM
- GI50 [34]: 380 nM
- activity at 10 µM [35]: -75.6%
- activity at 10 µM [36]: 11%
- activity at 10 µM [37]: 52.2%
- GI50 [38]: 266 nM
- GI50 [39]: 1350 nM
- activity at 10 µM [40]: 23.3%
- GI50 [41]: 278 nM
- GI50 [42]: 3520 nM
- activity at 10 µM [43]: -87.9%
- activity at 10 µM [44]: -22.5%
- GI50 [45]: 261 nM
- GI50 [46]: 369 nM
- activity at 10 µM [47]: 28.9%
